In assay [1] the target is T1, Thyrotropin-releasing hormone receptor (Mus musculus, UniProt P21761).
T1 sequence (P21761 whole entry): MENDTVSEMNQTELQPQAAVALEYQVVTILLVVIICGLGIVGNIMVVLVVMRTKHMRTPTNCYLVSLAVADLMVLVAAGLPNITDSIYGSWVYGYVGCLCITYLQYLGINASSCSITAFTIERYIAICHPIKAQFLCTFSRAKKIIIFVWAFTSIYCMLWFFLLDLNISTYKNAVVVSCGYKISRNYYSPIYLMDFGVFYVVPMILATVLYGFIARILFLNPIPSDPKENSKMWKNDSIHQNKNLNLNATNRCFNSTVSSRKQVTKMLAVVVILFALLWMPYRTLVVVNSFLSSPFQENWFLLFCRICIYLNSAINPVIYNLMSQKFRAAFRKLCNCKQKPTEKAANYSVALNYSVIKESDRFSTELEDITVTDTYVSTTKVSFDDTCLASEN

For assay [2], the target named is T2, Pro-thyrotropin-releasing hormone-B (Xenopus sp., UniProt Q00643).
T2 sequence (Q00643 whole entry): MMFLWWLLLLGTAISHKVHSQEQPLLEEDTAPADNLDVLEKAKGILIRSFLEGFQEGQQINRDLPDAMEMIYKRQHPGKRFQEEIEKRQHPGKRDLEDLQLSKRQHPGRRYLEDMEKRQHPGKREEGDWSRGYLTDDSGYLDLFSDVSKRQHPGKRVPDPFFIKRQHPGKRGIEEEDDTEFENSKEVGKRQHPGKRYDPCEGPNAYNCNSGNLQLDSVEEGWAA

Assay [3] addresses T3, Thyrotropin-releasing hormone receptor (Xenopus laevis, UniProt Q9DDR1).
T3 sequence (Q9DDR1 whole entry): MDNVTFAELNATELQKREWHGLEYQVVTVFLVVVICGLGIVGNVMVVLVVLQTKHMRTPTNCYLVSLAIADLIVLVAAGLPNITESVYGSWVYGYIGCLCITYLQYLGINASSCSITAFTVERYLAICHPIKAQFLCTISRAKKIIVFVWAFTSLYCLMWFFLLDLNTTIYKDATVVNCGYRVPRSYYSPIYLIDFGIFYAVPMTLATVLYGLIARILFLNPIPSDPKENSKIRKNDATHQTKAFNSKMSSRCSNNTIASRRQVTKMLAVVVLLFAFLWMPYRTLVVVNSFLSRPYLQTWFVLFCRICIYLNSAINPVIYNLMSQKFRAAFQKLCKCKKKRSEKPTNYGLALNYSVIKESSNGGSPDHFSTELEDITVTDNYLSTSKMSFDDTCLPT

The structures appear in SMILES notation.

Turning to `NC(=O)C1CCCN1C(=O)C(Cc1cnc[nH]1)NC(=O)[C@@H]1CCC(=O)C1` (stereo not given in full) [Pyr3TRH], the inhibition constant Ki in assay [1], in assay [2] and in assay [3] was greater than 10 µM each time.

Turning to `NC(=O)C1CCCN1C(=O)C(Cc1cnc[nH]1)NC(=O)C1CCC(=O)C1` (stereo not given) [Desaza1TRH], the Ki – broadly, a measure of affinity in units of concentration, obtained from inhibition or displacement – is greater than 10 µM in assay [2] and 3 µM in assay [3].

For the origin of these results see BindingDB's records for doi:10.1210/en.2002-221074 (National Institute of Diabetes and Digestive and Kidney …, 2003).
